Series [1] relates to A549 lung cancer cells. In words: MTT antiproliferative activity against A549. The format is cell-based. As to conditions: Homo sapiens; MTT assay, drug-sensitive A549. From the text: (§1) 3-(4,5-dimethylthiazol-2-yl)-2,5-diphenyltetrazolium bromide (MTT) assay was used to determined the antiproliferative activity of dihydroartemisinin-isatin hybrids 5a-e and 6a-j with three-carbon linker against A549, multidrug-resistant A549/DOX and A549/DDP lung cancer cell lines as well as cytotoxicity towards normal lung epithelial cell line (BEAS-2B). The inhibitory effects were expressed in terms of half maximal inhibitory concentration (IC50) values.
(§2) A549, A549/DOX, and A549/DDP lung cancer cells (2×10^3) were plated in each well of a 96-well plate and were allowed to adhere and spread for 24 h. The […] were added to a final concentration of 100 µM, and the cells were cultured for 24 h at 37 °C. 3-(4,5-dimethyl-2-thiazolyl)-2,5-diphenyltetrazolium bromide (MTT) solution (10 µL) was added to each well, and the cultures were incubated for an additional 4 h. A further 100 µL of […] was added and incubation continued overnight. The absorbance at 540 nm was determined in each well with a 96-well plate reader. The growth of the treated cells was compared with that of untreated cells.

Series [2] relates to A549/DOX (doxorubicin-resistant A549 cells). In words: MTT antiproliferative activity against doxorubicin-resistant A549. Type of series: cell-based. The conditions noted are these: for IC50: Homo sapiens, MTT assay, doxorubicin-resistant A549 cells.
Description: as §1, §2

Series [3] deals with A549/DDP (cisplatin-resistant A549 cells). In words: MTT antiproliferative activity against cisplatin-resistant A549. As to conditions: for IC50: Homo sapiens, MTT assay, cisplatin-resistant A549 cells. The format is cell-based.
Description: as §1, §2

Series [4] is described as follows: in vitro. The conditions noted are these: human. On the procedure: as §1
(§3) The compounds were dissolved in DMSO with concentrations from 1024 to 1 μg/mL. The NIH/3T3 cells were maintained in culture medium at 37 °C under 5% CO2 atmosphere. Cells were seeded in 96-well plates (1×10^4 cell per well) and allowed to recover for 24 h. After 72 h of exposure, cells were harvested and cell viability was assessed by MTT assay. The CC50 values were calculated by Bliss analysis.

The subject of series [5] is BEAS-2B normal lung epithelial cell line. In words: MTT cytotoxicity towards normal lung epithelial cells. As to conditions: IC50(BEAS-2B)/IC50(A549). On the procedure:
as §1, §3

Series [6] can be described thus: Metabolic stability in mouse liver microsomes. Type of series: in vitro ADME. As to conditions: in vitro stability. (In general: Liver microsomes are vesicles of endoplasmic reticulum, rich in cytochrome P450 enzymes.)
Series [7] in a line: Metabolic stability in human liver microsomes. The conditions noted are these: in vitro stability. The format is in vitro ADME.
Series [8] can be described thus: Pharmacokinetic properties in CD-1 mice. The format is in vivo. As to conditions: mouse, plasma; for bioavailability: 30 mg/kg, read-out: F (bioavailability); for AUC / Cmax / clearance / half-life / Tmax: single intravenous dose of 30 mg/kg; for Tmax: read-out: tmax (peak time) (converted). On the procedure: CD-1 mice model was administered with single intravenous […]) dose of 30 mg/kg to test the pharmacokinetic properties of hybrid 6a, e.
CD-1 mice mice (20-25 g) were used in the pharmacokinetic study, and each treatment group had 3 mice which were dosed with […] suspension at 30 mg/kg by single intravenous (iv) administration. Compounds were suspended in 0.5% CMC for iv, and blood was collected from the jugular vein of each mouse at the following time points: 0.25, 0.5, 1, 2, 4, 6, 8 and 24 h after […] administration. Total area under the concentration time curve (AUC), the elimination half-time (t1/2), the peak concentration (Cmax) and the time to reach peak concentration (Tmax) of samples were determined directly from the experimental data using WinNonlin V6.2.1.

The subject of series [9] is A549, A549/DOX and A549/DDP lung cancer cell lines. In words: MTT antiproliferative activity, summarised over the three lung cancer cell lines. Type of series: cell-based. As to conditions: for IC50: MTT assay, span of values over the three lung cancer cell lines, read-out: IC50 (range over A549, A549/DOX and A549/DDP); for times superior to cisplatin and doxorubicin: against multidrug-resistant A549/DOX and A549/DDP; for RI (drug resistance index: IC50(MDR A549)/IC50(A549)): span over RI1 and RI2.
Description: as §1, §2
For orientation: Tetrazolium assays rely on reduction of a dye to a coloured formazan, in cell work by metabolically active cells.

With `C[C@@H]1CC[C@H]2[C@@H](C)C(OCCCN3C(=O)C(=NO)c4ccccc43)O[C@@H]3O[C@@]4(C)CC[C@@H]1[C@]32OO4` (stereo partly drawn) [6a, 3-(hydroxyimino)-1-(3-(((3R,5aS,6R,8aS,9R,12R,12aR)-3,6,9-trimethyldecahydro-12H-3,12-epoxy[1,2]dioxepino[4,3-i]isochromen-10-yl)oxy)propyl)indolin-2-one], the IC50 in series [1] worked out at 5.72 µM. Moreover, in [2], the IC50 came to 7.35 µM and the “RI1 (Resistance index: IC50(A549/DOX)/IC50(A549))” value is 1.28. In addition, in series [3], the IC50 is 9.84 µM. In series [4], the IC50 is over 100 µM. Moreover, in series [5], the “SI (Selectivity index: IC50(BEAS-2B)/IC50(A549))” value is reported as over 17.4. In addition, the “Liver microsomes Mouse” value in series [6] was determined as 70%. In series [7], the “Liver microsomes Human” value stood at 62%. Besides, in [8], the bioavailability came out at 39.7%, the AUC was 2350 ng·h/mL, the highest level (Cmax) was 18.9 µM and the clearance was 62.3 mL/min/kg. In addition, in [8], the half-life was 3.1 h and the Tmax is 0.267 h. For the same compound, in series [9], the IC50 was 5.72 to 9.84 µM; the “times superior to cisplatin and doxorubicin” value was 1.5–10.8 times; the “RI (drug resistance index: IC50(MDR A549)/IC50(A549))” value is given as 1.03–1.66.
`C[C@@H]1CC[C@H]2[C@@H](C)C(OCCCN3C(=O)C(=NNC(N)=S)c4cc(F)ccc43)O[C@@H]3O[C@@]4(C)CC[C@@H]1[C@]32OO4` (stereo partly drawn) [6e, 2-(5-fluoro-2-oxo-1-(3-(((3R,5aS,6R,8aS,9R,12R,12aR)-3,6,9-trimethyldecahydro-12H-3,12-epoxy[1,2]dioxepino[4,3-i]isochromen-10-yl)oxy)propyl)indolin-3-ylidene)hydrazine-1-carbothioamide] gave an IC50 in series [1] of 5.99 µM. Further, in series [2], the IC50 is 8.93 µM and the “RI1 (Resistance index: IC50(A549/DOX)/IC50(A549))” value was determined as 1.49. In series [3], the IC50 was found to be 6.17 µM and the “RI2 (Resistance index: IC50(A549/DDP)/IC50(A549))” value was found to be 1.03. In addition, the IC50 in series [4] is over 100 µM. Moreover, in [5], the “SI (Selectivity index: IC50(BEAS-2B)/IC50(A549))” value is listed as over 16.6. For the same compound, the “Liver microsomes Mouse” value in series [6] came out at 54%. For the same compound, the “Liver microsomes Human” value in series [7] was 51%. Moreover, in [8], the bioavailability stood at 30.8%, the area under the curve (AUC) was 1670 ng·h/mL, the Cmax turned out to be 10.7 µM and the clearance was 44.8 mL/min/kg. In addition, in [8], the half-life is 4.7 h and the Tmax was 0.2 h. Further, in series [9], the IC50 was in the range of 5.72 to 9.84 µM; the “times superior to cisplatin and doxorubicin” value is reported as 1.5–10.8 times; the “RI (drug resistance index: IC50(MDR A549)/IC50(A549))” value is on record as 1.03–1.66.
Take `Cc1ccc2c(c1)C(=NNC(N)=S)C(=O)N2CCCOC1O[C@@H]2O[C@@]3(C)CC[C@H]4[C@H](C)CC[C@@H]([C@H]1C)[C@@]24OO3` (stereo partly drawn) [6h, 2-(5-methyl-2-oxo-1-(3-(((3R,5aS,6R,8aS,9R,12R,12aR)-3,6,9-trimethyldecahydro-12H-3,12-epoxy[1,2]dioxepino[4,3-i]isochromen-10-yl)oxy)propyl)indolin-3-ylidene)hydrazine-1-carbothioamide]: the IC50 was 99.6 µM in series [1], 87.3 µM in [2], 94.2 µM in series [3] and over 100 µM in series [4]. Moreover, the “RI1 (Resistance index: IC50(A549/DOX)/IC50(A549))” value in [2] was determined as 0.88. In series [3], the “RI2 (Resistance index: IC50(A549/DDP)/IC50(A549))” value is 0.95. For the same compound, the “SI (Selectivity index: IC50(BEAS-2B)/IC50(A549))” value in series [5] is over 1.0.
Turning to `COc1ccc2c(c1)C(=NO)C(=O)N2CCCOC1O[C@@H]2O[C@@]3(C)CC[C@H]4[C@H](C)CC[C@@H]([C@H]1C)[C@@]24OO3` (stereo partly drawn) [6i, 3-(hydroxyimino)-5-methoxy-1-(3-(((3R,5aS,6R,8aS,9R,12R,12aR)-3,6,9-trimethyldecahydro-12H-3,12-epoxy[1,2]dioxepino[4,3-i]isochromen-10-yl)oxy)propyl)indolin-2-one], the IC50 was 51.6 µM in series [1], 73.5 µM in [2], 60.2 µM in series [3] and over 100 µM in series [4]. Besides, the “RI2 (Resistance index: IC50(A549/DDP)/IC50(A549))” value in [3] was 1.17. Moreover, the “SI (Selectivity index: IC50(BEAS-2B)/IC50(A549))” value in [5] is listed as over 1.9.
With `COc1ccc2c(c1)C(=NNC(N)=S)C(=O)N2CCCOC1O[C@@H]2O[C@@]3(C)CC[C@H]4[C@H](C)CC[C@@H]([C@H]1C)[C@@]24OO3` (stereo partly drawn) [6j, 2-(5-methoxy-2-oxo-1-(3-(((3R,5aS,6R,8aS,9R,12R,12aR)-3,6,9-trimethyldecahydro-12H-3,12-epoxy[1,2]dioxepino[4,3-i]isochromen-10-yl)oxy)propyl)indolin-3-ylidene)hydrazine-1-carbothioamide], the IC50 in series [1] is 52.6 µM; in series [2] it was 78.5 µM; in series [3] it was 40.7 µM; in [4], over 100 µM. Also, in series [3], the “RI2 (Resistance index: IC50(A549/DDP)/IC50(A549))” value amounted to 0.77. Also, the “SI (Selectivity index: IC50(BEAS-2B)/IC50(A549))” value in series [5] was over 1.9.
Consider `C[C@H]1[C@@H](O)O[C@@H]2O[C@@]3(C)CC[C@H]4[C@H](C)CC[C@@H]1[C@@]24OO3` [DHA, Dihydroartemisinin], for which the IC50 in [1] was 69.4 µM; in [2], 88 µM; in series [3], 75.9 µM; in [4], over 100 µM; in series [9], 69.4 to 88 µM. In addition, the “RI1 (Resistance index: IC50(A549/DOX)/IC50(A549))” value in series [2] worked out at 1.27. Also, the “RI2 (Resistance index: IC50(A549/DDP)/IC50(A549))” value in series [3] came to 1.09. In addition, the “SI (Selectivity index: IC50(BEAS-2B)/IC50(A549))” value in series [5] is over 1.4.

What is called bioavailability is dose-corrected exposure relative to a reference, in per cent. For orientation: AUC means concentration integrated over time. Broadly, the Cmax is the highest concentration seen after dosing. A word on the clearance: it is the rate of elimination divided by the concentration. Lower therefore signals inefficient removal. What is called half-life is the time needed for the level to fall by half in the phase considered. High values mean slow decline, low ones rapid decline. Usually Tmax stands for the time from dosing to the highest level.
